# Experimental data published in ChEMBL document CHEMBL5370554, “Discovery of a first-in-class Aurora A covalent inhibitor for the treatment of triple negative breast cancer” (Eur J Med Chem, 2023).
# Assays:
# A549 = test: Antiproliferative activity against human A549 cells assessed as inhibition of cell proliferation incubated for 48 hrs by CCK-8 assay; type: functional, cell-based; conditions: A549, 48 h
# Aurora kinase A = target: T1, Aurora kinase A (Homo sapiens, UniProt O14965); test: Inhibition of recombinant human Aurora A (1 to 403 residues) expressed in Escherichia coli using FAM-labeled peptide as substrate preincubated for 10 mins followed by substrate addition and measured after 20 mins in presence of ATP by HTRF assay
# T1 sequence (O14965 whole entry): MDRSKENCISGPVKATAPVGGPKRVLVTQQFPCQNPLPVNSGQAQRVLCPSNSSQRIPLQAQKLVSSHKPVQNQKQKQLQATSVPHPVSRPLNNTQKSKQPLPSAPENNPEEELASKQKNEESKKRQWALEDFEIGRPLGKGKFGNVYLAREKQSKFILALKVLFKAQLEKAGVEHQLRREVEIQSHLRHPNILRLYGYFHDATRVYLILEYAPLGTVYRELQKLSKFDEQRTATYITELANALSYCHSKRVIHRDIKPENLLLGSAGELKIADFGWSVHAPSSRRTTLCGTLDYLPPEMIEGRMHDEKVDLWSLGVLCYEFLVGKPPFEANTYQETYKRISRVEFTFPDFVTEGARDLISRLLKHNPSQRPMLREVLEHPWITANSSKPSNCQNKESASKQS
# SJSA-1 = test: Antiproliferative activity against human SJSA-1 cells assessed as inhibition of cell proliferation incubated for 48 hrs by CCK-8 assay; type: functional, cell-based; conditions: SJSA-1, 48 h
# MDA-MB-231 [1] = test: Antiproliferative activity against human MDA-MB-231 cells assessed as inhibition of cell proliferation incubated for 48 hrs by CCK-8 assay; type: functional, cell-based; conditions: MDA-MB-231, 48 h
# HeLa = test: Antiproliferative activity against human HeLa cells assessed as inhibition of cell proliferation incubated for 48 hrs by CCK-8 assay; type: functional, cell-based
# [2] = Cytotoxicity against human L02 cells assessed as inhibition of cell proliferation incubated for 48 hrs by CCK-8 assay; type: toxicity, cell-based
# [3] = Toxicity in BALB/c nude mouse xenografted with human MDA-MB-231 cells assessed as body weight change at 30 mg/kg,ip every 2days for 20 days; type: organism-based; conditions: in vivo, 480 h, time 20 day
# MDA-MB-231 [4] = test: Antitumor activity against human MDA-MB-231 cells xenografted in BALB/c nude mouse assessed as tumor growth inhibition at 30 mg/kg,ip every 2days for 20 days; type: functional; conditions: MDA-MB-231, 480 h, time 20 day, read-out: TGI
SMILES,IC50 (A549) [µM],IC50 (Aurora kinase A) [µM],IC50 (SJSA-1) [µM],IC50 (MDA-MB-231 [1]) [µM],IC50 (HeLa) [µM],IC50 at 48 h [2] [µM],Activity [3],inhibition in vivo at 30 mg/kg (MDA-MB-231 [4]) [%]
C=CC(=O)Nc1cccc(-c2nc(Nc3cc(C)[nH]n3)c3ccc(N4CCOCC4)cc3n2)c1,0.85,0.0017,12.5,5.9,2.23,–,–,–
Cc1cc(Nc2nc(-c3ccccc3O)nc3cc(N4CCN(C)CC4)ccc23)n[nH]1,2.69,0.0055,11.6,2.43,3.8,–,–,–
C=CC(=O)Nc1cc(-c2nc(Nc3cc(C)[nH]n3)c3ccc(N4CCN(C)CC4)cc3n2)ccc1C,0.31,0.0011,23.6,1.66,9.13,34.2,–,–
CCC(=O)Nc1ccc(-c2nc(Nc3cc(C)[nH]n3)c3ccc(N4CCN(C)CC4)cc3n2)cc1,1.18,0.005,28.6,2.2,17.9,24.7,–,–
Cc1cc(Nc2cc(N3CCN(C)CC3)nc(/C=C/c3ccccc3)n2)n[nH]1 [ENMD-2076],2.65,–,56.7,5.21,9.02,42.6,Non-Toxic,30.9
Cc1cc(Nc2nc(-c3ccc(OS(=O)(=O)F)cc3)nc3cc(N4CCN(C)CC4)ccc23)n[nH]1,1.15,0.025,23.1,4.34,4.87,–,–,–
Cc1cc(Nc2nc(-c3cccc(O)c3)nc3cc(N4CCN(C)CC4)ccc23)n[nH]1,2.15,0.002,10.7,1.49,6.8,–,–,–
C=CC(=O)Nc1ccccc1-c1nc(Nc2cc(C)[nH]n2)c2ccc(N3CCN(C)CC3)cc2n1,19.7,0.045,13.9,13.4,41.2,–,–,–
Cc1cc(Nc2nc(-c3cccc(N)c3)nc3cc(N4CCOCC4)ccc23)n[nH]1,1.77,–,12.5,6.96,7.52,–,–,–
C=CC(=O)Nc1ccc(-c2nc(Nc3cc(C)[nH]n3)c3ccc(N4CCOCC4)cc3n2)cc1,0.26,0.0027,14.8,2.66,5.51,43.2,–,–
C=CC(=O)Nc1cccc(-c2nc(Nc3cc(C)[nH]n3)c3ccc(N4CCN(C)CC4)cc3n2)c1,3.27,0.0015,6.8,2.6,4.22,–,–,–
Cc1cc(Nc2nc(-c3ccccc3N)nc3cc(N4CCN(C)CC4)ccc23)n[nH]1,1.13,0.011,2.66,0.76,8.3,–,–,–

# More lines, main results first:
IC50 (A549) [µM],IC50 (Aurora kinase A) [µM],IC50 (SJSA-1) [µM],IC50 (MDA-MB-231 [1]) [µM],IC50 (HeLa) [µM],SMILES,IC50 at 48 h [2] [µM],Activity [3],inhibition in vivo at 30 mg/kg (MDA-MB-231 [4]) [%]
1.64,–,6.54,4.39,7.3,Cc1cc(Nc2nc(-c3ccc(N)cc3)nc3cc(N4CCOCC4)ccc23)n[nH]1,–,–,–
2.06,0.0021,3.67,1.75,6.77,Cc1cc(Nc2nc(-c3cccc(N)c3)nc3cc(N4CCN(C)CC4)ccc23)n[nH]1,–,–,–
1.44,–,18.8,1.44,5.5,Cc1cc(Nc2nc(-c3ccccc3)nc3cc(N4CCN(C)CC4)ccc23)n[nH]1,2.74,–,–
4.12,0.0031,2.82,0.64,4.88,Cc1cc(Nc2nc(-c3ccc(N)cc3)nc3cc(N4CCN(C)CC4)ccc23)n[nH]1,–,–,–
4.74,0.0025,17.4,1.34,9.68,Cc1cc(Nc2nc(-c3ccc(O)cc3)nc3cc(N4CCN(C)CC4)ccc23)n[nH]1,–,–,–
